One assay has as its system IL-5. Nature of the assay: IL-5 level in bronchoalveolar lavage fluid (ELISA). Conditions: OVA/OVA+Treh vs OVA/OVA, FIG. 5B. The assay is classed as in vivo, BALB/c mice. Here is the method: (§1) Asthma model mice were produced using BALB/c mice (8 to 10 weeks old) and ovalbumin (OVA) serving as an antigen, and examinations were conducted by administering trehalose by inhalation. On the first day and the fourteenth day, a physiological saline solution or OVA was intraperitoneally administered. 20 micrograms of OVA was administered to one mouse using aluminum hydroxide as an adjuvant. From the twenty-seventh day to the thirty-first day, 10% trehalose or distilled water was administered by inhalation for 20 minutes every day. Moreover, from the twenty-eighth day to the thirtieth day, a physiological saline solution or 1% OVA was administered by inhalation for 20 minutes, 1 to 1.5 hours after the above-mentioned inhalation. On the thirty-second day, evaluation was conducted using an assay system for evaluating allergic airway inflammation and hyperresponsive airway. Bronchoalveolar lavage was performed on the model mice of Example 1, and the numbers of various cells obtained through the bronchoalveolar lavage were compared and examined. […] The cytokine levels in the bronchoalveolar lavage fluids obtained in Example 4 were measured using an ELISA measurement kit. […] It should be noted that interferon (IFN-γ) was not detected from any of the groups. […]
On the technique in general: In an ELISA, binding on a coated surface is turned into a signal by an enzyme label.

For another assay, the system named is IL-13. Nature of the assay: IL-13 level in bronchoalveolar lavage fluid (ELISA). The assay is classed as in vivo, BALB/c mice. The note with it: OVA/OVA+Treh vs OVA/OVA, FIG. 5C. How it is done: as §1
For assay [1], the system named is alveolar epithelial cells. Kind of assay: Pulmonary tissue sections, H.E. and PAS staining, asthma model mice. The assay is classed as in vivo, BALB/c mice. The note with it: primary inhalation of trehalose, FIGS. 3A, 3B. How it is done:
Asthma model mice were produced using BALB/c mice (8 to 10 weeks old) and ovalbumin (OVA) serving as an antigen, and examinations were conducted by administering trehalose by inhalation. On the first day and the fourteenth day, a physiological saline solution or OVA was intraperitoneally administered. 20 micrograms of OVA was administered to one mouse using aluminum hydroxide as an adjuvant. From the twenty-seventh day to the thirty-first day, 10% trehalose or distilled water was administered by inhalation for 20 minutes every day. Moreover, from the twenty-eighth day to the thirtieth day, a physiological saline solution or 1% OVA was administered by inhalation for 20 minutes, 1 to 1.5 hours after the above-mentioned inhalation. On the thirty-second day, evaluation was conducted using an assay system for evaluating allergic airway inflammation and hyperresponsive airway. Pulmonary tissue pathological sections were produced from the model mice of Example 1, and the diseases state was observed through hematoxylin-eosin (H.E.) staining and periodic acid-Schiff (PAS) staining. FIGS. 3A and 3B show the results of H.E. staining and the results of PAS staining, respectively.

For the next assay, the system named is TNF-α. Kind of assay: TNF-α induced by homogenized cell lysate (ELISA). In kind it is cell-based. Conditions: RAW264.7 cells.
The subject of assay [2] is RAW264.7 cells (macrophages). Kind of assay: Lipid peroxides (LPO) in cells treated with hemolysate. In kind it is cell-based. The note with it: 5% trehalose, 10% hemolysate for 3 hours, FIG. 6A. How it is done: (§2) Suppression of PLA2 activation caused by applying hydrogen peroxide stimulus to RAW264.7 cells (macrophages) was measured using [^3H]-AA release assay. FIGS. 6A and 6B show the measurement results showing the influence of trehalose on hemolysate or oxygen free radicals. FIGS. 6A and 6B show the measurement results in the case where a culture medium or hemolysate contains a physiological saline solution (Sal), 5% trehalose (Ire), or 5% maltose (Mal). […] In this experiment, RAW264.7 cells were treated with 10% hemolysate for 3 hours. The hemolysate was prepared as a supernatant by suspending erythrocytes of a Wistar rat in a saline solution, an aqueous solution of trehalose, or an aqueous solution of maltose, sonicating the resulting suspension, and then centrifuging the suspension. The LPO level was measured through a colorimetric analysis using a divalent iron molecule. […] In this experiment, RAW264.7 cells were labeled with [3H] arachidonic acid overnight and then treated with hydrogen peroxide for 3 hours. The level of released arachidonic acid was quantified by measuring the radioactivity of the collected culture medium.

A further assay deals with PLA2. Kind of assay: Released [3H]-arachidonic acid after drying stimulus (PLA2 activation). In kind it is cell-based. The note with it: 7.5% trehalose pretreatment 15 minutes, dried 7 minutes; Ca9-22; FIG. 8B. How it is done: The oral epithelial cell line (Ca9-22) maintained in DMEM-10% FBS was treated with [^3H]-arachidonic acid overnight. Pretreatment with a physiological saline solution (Sal), 7.5% trehalose (Tre), or 7.5% maltose (Mal) was conducted for 15 minutes, and then the cells were dried for 7 minutes. Subsequently, a culture medium was added, and then the cells were cultured for 1 hour.

Assay [3] deals with RAW264.7 cells (macrophages). Kind of assay: [3H]-arachidonic acid release after hydrogen peroxide stimulus. The assay is classed as cell-based. The note with it: 5% trehalose, hydrogen peroxide for 3 hours, FIG. 6B. Here is the method:
as §2

Another assay relates to IgE antibody. Nature of the assay: IgE antibody levels in serum of OVA asthma model mice. Conditions: 10% trehalose by inhalation 20 min daily, day 27-31, OVA/OVA+Treh vs OVA/OVA, P<0.05. The assay is classed as in vivo, BALB/c mice. Here is the method: Asthma model mice were produced using BALB/c mice (8 to 10 weeks old) and ovalbumin (OVA) serving as an antigen, and examinations were conducted by administering trehalose by inhalation. On the first day and the fourteenth day, a physiological saline solution or OVA was intraperitoneally administered. 20 micrograms of OVA was administered to one mouse using aluminum hydroxide as an adjuvant. From the twenty-seventh day to the thirty-first day, 10% trehalose or distilled water was administered by inhalation for 20 minutes every day. Moreover, from the twenty-eighth day to the thirtieth day, a physiological saline solution or 1% OVA was administered by inhalation for 20 minutes, 1 to 1.5 hours after the above-mentioned inhalation. On the thirty-second day, evaluation was conducted using an assay system for evaluating allergic airway inflammation and hyperresponsive airway. FIGS. 1A and 1B show the measurement results of the IgE antibodylevels in the serum. […] Suppressing the production of IgE antibodies makes it possible to suppress an increase in the severity of pulmonary tissue lesion caused by cytokine storm, which is an overreaction of the immune system caused by chemical mediators from mast cells. […]

A further assay has as its system IL-1α. Nature of the assay: IL-1α induced by homogenized cell lysate (ELISA). The assay is classed as cell-based. Conditions: lysate homogenized in 10% aqueous trehalose vs saline; RAW264.7 cells, 8 hours; FIG. 7B.

Regarding `OC[C@H]1O[C@H](O[C@H]2O[C@H](CO)[C@@H](O)[C@H](O)[C@H]2O)[C@H](O)[C@@H](O)[C@@H]1O` [trehalose], the “IL-5 level in bronchoalveolar lavage fluid” value in the assay with IL-5 is listed as “significantly suppress the expression of cytokines”. Further, the “IL-13 level in bronchoalveolar lavage fluid” value in the assay with IL-13 is listed as “significantly suppress the expression of cytokines”. Further, the “damage to alveolar epithelial cells (inflammatory cell infiltration, goblet cell hyperplasia)” value in [1] is on record as “suppress damage to the alveolar epithelial cells”. Besides, the “dose dependence of suppression of the TNT-α production” value in the assay on TNF-α (cell lysate model) is “depends on the dosage of trehalose”. For the same compound, the “TNF-α level induced by cell lysate” value in the assay on TNF-α (lysate homogenized in 10% aqueous trehalose vs saline, 8 hours, FIG. 7A) is on record as “significantly reduced”. The “lipid peroxides (LPO) level” value in [2] is “protecting cells from oxygen free radicals and hemolysate”. Further, in the assay with PLA2, the “PLA2 activation caused by drying stimulus (released arachidonic acid)” value was “suppresses PLA2 activation caused by drying stimulus”. In addition, the “level of released arachidonic acid” value in assay [3] is “protecting cells from oxygen free radicals and hemolysate”. The “total IgE level in serum” value with IgE antibody (FIG. 1A) is “significantly reduce the production amount of IgE”. Also, in the assay with IgE antibody (FIG. 1B), the “level of IgE specific to the antigen (ovalbumin) in serum” value is “significantly reduce the production amount of IgE”. Further, the “IL-1α level induced by cell lysate” value in the assay with IL-1α is given as “significantly reduced”.

(Values after patent US20230041980A1, “METHOD OF PROTECTING A RESPIRATORY TRACT OR A LUNG FROM DAMAGE, METHOD OF PROTECTING A LUNG FROM PRESSURE DAMAGE INDUCED BY A VENTILATOR, METHOD OF SUPPRESSING SPREAD OF INFECTION WITH VIRUSES OR BACTERIA THAT CAUSE PNEUMONIA IN PULMONARY BRONCHIAL EPITHELIAL CELLS OR ALVEOLAR EPITHELIAL CELLS, AND …” (NEXT21 KABUSHIKI KAISHA, priority 2020, published 2023).)
